One series deals with T1, 5-HT2C receptor (Homo sapiens, UniProt P28335).
T1 sequence (P28335 33-458): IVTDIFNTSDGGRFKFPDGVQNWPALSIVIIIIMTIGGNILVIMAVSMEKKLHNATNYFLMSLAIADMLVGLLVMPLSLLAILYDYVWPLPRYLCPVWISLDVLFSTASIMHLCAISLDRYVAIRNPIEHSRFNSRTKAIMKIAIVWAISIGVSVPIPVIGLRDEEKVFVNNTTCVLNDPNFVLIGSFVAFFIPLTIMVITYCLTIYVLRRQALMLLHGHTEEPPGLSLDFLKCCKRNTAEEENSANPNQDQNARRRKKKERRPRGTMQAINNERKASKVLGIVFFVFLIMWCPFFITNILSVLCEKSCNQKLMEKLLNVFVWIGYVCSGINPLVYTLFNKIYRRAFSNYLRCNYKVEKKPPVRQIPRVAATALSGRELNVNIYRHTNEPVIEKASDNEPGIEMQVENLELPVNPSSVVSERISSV
In words: Radioligand binding at 5-HT2C ([3H]mesulergine). As for the experimental part: (§1) The binding affinities of disclosed compounds at the ketanserin binding site of the 5-HT2A receptor, the LSD binding site of the 5-HT2B receptor, and the mesulergine binding site of the 5-HT2C receptor were determined in radioligand binding experiments.
(§2) Method. The affinity of the test compounds for 5-HT2A, 5-HT2B, and 5-HT2C receptors was determined in radioligand binding experiments with [^3H]ketanserin, [^3H]LSD, and [^3H]mesulergine, respectively, by WuXi AppTec (Hong Kong) Limited, using methods adapted from the literature and under conditions described in Table 7.

A short description of series [1]: Metabolic stability in human liver microsomes (HLM). The format is in vitro ADME. As to conditions: for half-life at 1 µM / microsomal CLint at 1 µM: human liver microsomes 0.50 mg/mL, NADPH 1 mM, test compound 1 μM, 37° C., pH 7.4, 60 min; for stability in HLM (in words): 1 μM, 0.50 mg protein/mL, 1 mM NADPH, 37 °C, 60 min. As for the experimental part: (§3) Test Compounds. Compounds were prepared as described above.
HLM Stability. Pooled HLM from adult male and female donors (Corning 452117) were used. Microsomal incubations were carried out in multi-well plates. Liver microsomal incubation medium consisted of PBS (100 mM, pH 7.4), MgCl2 (1 mM), and NADPH (1 mM), with 0.50 mg of liver microsomal protein per mL. Control incubations were performed by replacing the NADPH-cofactor system with PBS. Test compounds (1 μM, final solvent concentration 1.0%) were incubated with microsomes at 37° C. with constant shaking. Six time points over 60 minutes were analyzed, with 60 μL aliquots of the reaction mixture being drawn at each time point. The reaction aliquots were stopped by adding 180 μL of cold (4° C.) acetonitrile containing 200 ng/mL tolbutamide and 200 ng/mL labetalol as internal standards (IS), followed by shaking for 10 minutes, and then protein sedimentation by centrifugation at 4,000 rpm for 20 minutes at 4° C. Supernatant samples (80 μL) were diluted with water (240 μL) and analyzed for parent compound remaining using a fit-for-purpose liquid chromatography-tandem mass spectrometry (LC-MS/MS) method.
Data Analysis. The elimination constant (kel), half-life (t1/2), and intrinsic clearance (CLint) were determined in a plot of […] versus time, using linear regression analysis.

Series [2] concerns the target T2, 5-HT2A receptor (Homo sapiens, UniProt P28223). In words: Radioligand binding at 5-HT2A ([3H]ketanserin). On the set-up: expressed in transfected cells. As for the experimental part:
as §1, §2

A further series deals with T3, 5-HT2B receptor (Homo sapiens, UniProt P41595).
T3 construct: expressed in transfected cells; host or cells: HEK293
Briefly: FLIPR Ca2+ flux functional agonist assay at 5-HT2B. In kind it is cell-based. To be noted: for Emax: agonist activity, FLIPR Ca2+ flux, HEK293, at max dose, read-out: 5-HT2B % Act @ Max Dose. As for the experimental part: (§4) Disclosed compounds were tested for agonist activity at several serotonin receptor subtypes (5-HT2A, […], and 5-HT2C) using Ca^2+ flux functional assays, with the results summarized in Table 9.
as §3
(§5) Functional Assays at 5-HT2A and 5-HT2B. Agonist activity at 5-HT2A and 5-HT2B receptors was determined using a FLIPR Ca^2+ flux assay at WuXi AppTec (Hong Kong) Limited according to their standard protocols. Briefly, stably transfected cells expressing the receptor of interest (HEK293 for both 5-HT2A and 5-HT2B) were grown and plated in a 384-well plate and incubated at 37° C. and 5% CO2 overnight. A solution of 250 mM probenecid in 1 mL FLIPR assay buffer was prepared fresh. This was combined with a fluorescent dye (Fluo-4 Direct™) to make a final assay concentration of 2.5 mM. Compounds were diluted 1:3.16 for 10 points and 750 nL was added to a 384 well compound plate using ECHO along with 30 μL assay buffer. The fluorescent dye was then added to the assay plate along with assay buffer to a final volume of 40 μL. The cell plate was incubated for 50 min at 37° C. and 5% CO2 and placed into the FLIPR Tetra along with the compound plate. 10 μL of references and compounds were then transferred from the compound plate into the cell plate and the fluorescent signal was read.
On the technique in general: A change in cytosolic calcium serves as a functional read-out for many receptors and channels.

Series [3] has as its target T2, 5-HT2A receptor. In words: FLIPR Ca2+ flux functional agonist assay at 5-HT2A. The format is cell-based. On the set-up: expressed in transfected cells; host or cells: HEK293. As to conditions: for Emax: HEK293, read-out: 5-HT2A % Act @ Max Dose; for agonist activity at 5-HT2A (in words): potency or efficacy. As to the method: as §4, §3, §5
For series [4], the target named is T2, 5-HT2A receptor. Briefly: PathHunter beta-arrestin recruitment functional agonist assay at 5-HT2A. In kind it is cell-based. On the set-up: expressed in transfected cells; host or cells: PathHunter cells (Eurofins DiscoverX). To be noted: for Emax: read-out: 5-HT2A Arrestin % Act @ Max Dose; for agonist activity at 5-HT2A in arrestin assay (in words): beta-arrestin recruitment. As to the method:
Disclosed compounds were tested for agonist activity at the 5-HT2A receptor using a beta-arrestin (arrestin) recruitment functional assay, with the results summarized in Table 10.
Arrestin Functional Assay at 5-HT2A. Recruitment of beta-arrestin was determined using a PathHunter assay at Eurofins DiscoverX (Fremont, CA) according to their standard protocols. PathHunter GPCR beta-arrestin assays take advantage of DiscoverX's proprietary Enzyme Fragment Complementation technology. The GPCR is fused in frame with a small enzyme donor fragment ProLink™ (PK) and co-expressed in cells stably expressing a fusion protein of beta-arrestin and the larger, N-terminal deletion mutant of beta-galactosidase. Activation of the GPCR (5-HT2A receptor in this case) stimulates binding of beta-arrestin to the PK-tagged GPCR and forces complementation of the two enzyme fragments, resulting in the formation of an active beta-galactosidase enzyme. This interaction leads to an increase in enzyme activity that can be measured using chemiluminescent PathHunter Detection Reagents. Briefly, PathHunter cells expressing 5-HT2A receptors were seeded in a volume of 20 μL into 384-well plates and incubated at 37° C. for the appropriate time prior to testing. For agonist activity determination, cells were incubated with 5 μL of 5× sample in assay buffer and incubated at 37° C. for 90-180 min with a vehicle concentration of 1%. Plates were then imaged on a microplate reader and the agonist activity was calculated using the following formula: % Activity=100%×(mean RLU of test sample−mean RLU of vehicle control)/(mean MAX control ligand−mean RLU of vehicle control), where RLU=relative light units.
In general terms: Activated receptors often draw arrestin, which recruitment assays turn into a signal.

As a reminder, the Ki is the dissociation constant of the complex between target and ligand, obtained from inhibition or displacement. The low end stands for higher affinity, the high end for lower affinity. In general, half-life refers to the time needed for the level to fall by half in the phase considered. Broadly, the microsomal CLint is a measure of how fast metabolising enzymes remove a compound, apart from limits set by blood flow. A word on the EC50: it is the concentration at which the effect is half-maximal. The low end stands for higher potency in that assay, the high end for lower potency in that assay.

“Also recorded” adds a separate entry of the source.

T3 sequence (P41595 whole entry): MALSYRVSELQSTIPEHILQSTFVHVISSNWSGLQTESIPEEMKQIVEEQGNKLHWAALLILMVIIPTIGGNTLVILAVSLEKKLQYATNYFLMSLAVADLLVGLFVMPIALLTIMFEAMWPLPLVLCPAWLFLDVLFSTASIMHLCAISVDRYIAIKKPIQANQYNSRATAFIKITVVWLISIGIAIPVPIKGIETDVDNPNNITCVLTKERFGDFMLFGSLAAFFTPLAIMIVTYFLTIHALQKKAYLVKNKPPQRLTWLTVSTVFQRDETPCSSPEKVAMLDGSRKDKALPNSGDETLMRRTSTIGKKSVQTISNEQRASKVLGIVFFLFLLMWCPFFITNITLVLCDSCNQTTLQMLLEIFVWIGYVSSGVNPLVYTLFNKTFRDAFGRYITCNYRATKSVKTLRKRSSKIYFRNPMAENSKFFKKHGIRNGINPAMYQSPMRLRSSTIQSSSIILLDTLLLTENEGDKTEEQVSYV
T2 sequence (P28223 whole entry): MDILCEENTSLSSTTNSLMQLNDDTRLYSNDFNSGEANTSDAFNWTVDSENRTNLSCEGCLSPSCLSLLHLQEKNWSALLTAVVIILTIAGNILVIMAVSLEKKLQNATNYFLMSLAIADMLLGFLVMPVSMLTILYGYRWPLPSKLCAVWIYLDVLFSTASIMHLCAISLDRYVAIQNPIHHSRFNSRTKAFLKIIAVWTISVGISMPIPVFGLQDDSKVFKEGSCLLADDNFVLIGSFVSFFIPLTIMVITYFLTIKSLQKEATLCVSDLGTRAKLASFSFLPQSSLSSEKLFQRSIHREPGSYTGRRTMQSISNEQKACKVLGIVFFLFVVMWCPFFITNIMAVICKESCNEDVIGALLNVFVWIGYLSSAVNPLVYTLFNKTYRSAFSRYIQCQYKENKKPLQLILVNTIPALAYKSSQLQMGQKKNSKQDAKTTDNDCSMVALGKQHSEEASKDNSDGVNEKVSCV

Regarding `CCCCCCc1cc(OC)c(C[C@@H](N)CC)cc1OC` [Compound 1S, (S)-1-(4-hexyl-2,5-dimethoxyphenyl)butan-2-amine], the Ki amounted to 2.68 nM at 5-HT2C receptor and 3.34 nM on 5-HT2A receptor [2]. The half-life at 1 µM in series [1] is 19.7 min. For the same compound, in series [1], the microsomal CLint at 1 µM came out at 70.2 µL/min/mg. The values for the EC50 at 5-HT2B receptor, on 5-HT2A receptor [3] and at 5-HT2A receptor [4] were more than 10000 nM, 43.8 nM and 7.85 nM, respectively. Further, the Emax on 5-HT2B receptor stood at 16.1%; on 5-HT2A receptor [3], 59.7%; at 5-HT2A receptor [4], 58.5%.

`CCCCCCc1cc(OC)c(C[C@H](N)CC)cc1OC` [Compound 1R, (R)-1-(4-hexyl-2,5-dimethoxyphenyl)butan-2-amine]: the Ki at 5-HT2C receptor was found to be 18 nM. Also, the “fold lower affinity at 5-HT2C” value on 5-HT2C receptor (1R compared to 1S) is ~ 7 fold. In series [1], the “stability in HLM (in words)” value is “substantially more stable than 1S”, the half-life at 1 µM was determined as 37.5 min and the intrinsic metabolic clearance (microsomal CLint) at 1 µM was determined as 37 µL/min/mg. Further, in series [1] (1R versus 1S), the “CLint and half-life in HLM (in words)” value is “lower CLint and longer half-life”. The affinity on 5-HT2A receptor [2], expressed as Ki, was 3.44 nM. For the same compound, at 5-HT2A receptor [2] (1R, over 5-HT2B and 5-HT2C, compared to 1S), the “selectivity for 5-HT2A (in words)” value is listed as “greater selectivity for 5-HT2A”. Also, at 5-HT2B receptor, the EC50 was more than 10000 nM and the Emax worked out at 14.8%. For the same compound, on 5-HT2A receptor [3], the EC50 was found to be 23.1 nM and the Emax worked out at 76.8%. At 5-HT2A receptor [3] (1R compared to 1S, Ca2+ flux), the “fold more potent at 5-HT2A” value is on record as ~ 2 fold. In addition, on 5-HT2A receptor [3] (Ca2+ flux), the “agonist activity at 5-HT2A (in words)” value is reported as “Efficacy at 5-HT2A was also greater for 1R compared to 1S”. Besides, at 5-HT2A receptor [4], the EC50 was 6.23 nM, the “agonist activity at 5-HT2A in arrestin assay (in words)” value is “substantially more efficacious compared to 1S” and the Emax was found to be 82.5%.

The compound `CCC(N)Cc1cc(OC)c(CCCCCC(F)(F)F)cc1OC` (racemic) [Compound 2a, 1-(2,5-dimethoxy-4-(6,6,6-trifluorohexyl)phenyl)butan-2-amine] came in with a Ki on 5-HT2C receptor of 61.7 nM. For the same compound, the “selectivity for 5-HT2A over 5-HT2C (in words)” value at 5-HT2C receptor (Ki at 5-HT2C vs Ki at 5-HT2A) is on record as “even higher selectivity than 1R for 5-HT2A over 5-HT2C”. For the same compound, in series [1], the “stability in HLM (in words)” value was “significantly higher stability compared to 1R and 1S”; the half-life at 1 µM is more than 145 min; the microsomal CLint at 1 µM was less than 9.6 µL/min/mg. At 5-HT2A receptor [2], this compound showed an inhibition constant (Ki) of 5.4 nM. Besides, the “binding at 5-HT2A receptors (in words)” value at 5-HT2A receptor [2] ([3H]ketanserin) is “potent ligands for 5-HT2A”. At 5-HT2B receptor, the EC50 is more than 10000 nM and the Emax was 4.85%. Besides, at 5-HT2A receptor [3], the EC50 came out at 156 nM and the Emax was found to be 36.2%. At 5-HT2A receptor [3] (Ca2+ flux), the “agonist activity at 5-HT2A (in words)” value is “substantially less potent than 1R and 1S in the 5-HT2A FLIPR assay; also recorded: substantially lower efficacy than 1R or 1S”. Further, on 5-HT2A receptor [4], a half-maximal response (EC50) required 33.2 nM, the “agonist activity at 5-HT2A in arrestin assay (in words)” value was “higher efficacy in this assay than in the 5-HT2A FLIPR assay” and the Emax came out at 56.8%.
